Experiment [1] addresses T1, Human GPR120 short form (Homo sapiens, UniProt Q5NUL3).
T1 construct: expressed in transfected cells
T1 sequence (Q5NUL3 1-361): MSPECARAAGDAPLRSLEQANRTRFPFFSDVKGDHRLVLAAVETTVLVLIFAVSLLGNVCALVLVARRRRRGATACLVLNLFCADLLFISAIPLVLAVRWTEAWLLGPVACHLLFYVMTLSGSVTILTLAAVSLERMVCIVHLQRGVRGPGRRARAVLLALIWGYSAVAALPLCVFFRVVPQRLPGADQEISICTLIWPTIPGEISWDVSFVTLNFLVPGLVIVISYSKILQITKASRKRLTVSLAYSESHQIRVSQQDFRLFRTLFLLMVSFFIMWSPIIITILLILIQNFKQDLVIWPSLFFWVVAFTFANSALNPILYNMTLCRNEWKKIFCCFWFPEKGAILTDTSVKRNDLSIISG
The experiment is described as follows: Human GPR120 calcium flux assay, Procedure Calcium B (4200 cells/well). In kind it is cell-based. The gist of the method: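 Agonist EC50 came from a four-parameter fit of RFU (Fmax−Fmin) read over 300 s on FLIPR. Cells were HEK293 stably transfected with human GPR120 (NM_001195755.1) at 4200 per well, serum-starved 1 h and loaded with Fluo-4 NW dye with probenecid before ligand addition.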

In experiment [2] the target is T2, human GPR40 (Homo sapiens, UniProt O14842).
T2 construct: expressed in transfected cells
T2 sequence (O14842 whole entry): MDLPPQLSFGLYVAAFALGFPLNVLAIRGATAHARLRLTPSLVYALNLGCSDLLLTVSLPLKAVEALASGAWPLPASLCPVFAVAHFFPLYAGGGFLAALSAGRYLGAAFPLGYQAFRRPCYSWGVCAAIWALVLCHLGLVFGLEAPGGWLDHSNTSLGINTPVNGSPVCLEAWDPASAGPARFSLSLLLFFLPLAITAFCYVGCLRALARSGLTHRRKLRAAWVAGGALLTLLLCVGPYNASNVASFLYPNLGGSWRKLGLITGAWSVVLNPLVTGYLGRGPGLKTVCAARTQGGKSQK
Put plainly: GPR40 calcium flux assay, human GPR40. It is filed as cell-based. The note with it: HEK293 cells stably expressing GPR40; table does not say human or rat. The gist of the method:
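Cells preincubated 1 h at 37° C. in HBSS, 20 mM HEPES, 0.1% BSA, then Fluo 8 calcium dye 30 min at 37° C. and 15 min at room temperature.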

For 31 compounds, EC50 results are on record in US11230526B1, “Cylcoalkenyl derivatives useful as agonists of the GPR120 and/or GPR40 receptors” (Janssen Pharmaceutica NV, priority 2018, dated 2022).

Bounds are passed on as bounds.

For `CC(C)CCC1=C(COc2ccc(CCC(=O)O)c(C(F)(F)F)c2)CCC1` [Compound 374, 3-[4-[(2-isopentylcyclopenten-1-yl)methoxy]-2-(trifluoromethyl)phenyl]Propanoic Acid], the values for the EC50 in experiment [1] and in experiment [2] were 1430 nM and 199 nM, respectively.

For the compound `Cc1cc(OCC2=C(c3ccc(Cl)cc3)CC(F)(F)C2)c(F)cc1CCC(=O)O` [Compound 375], the 50% effective concentration (EC50) in experiment [1] amounted to 88 nM; in experiment [2], 962 nM.

Take `CC(C)C1=C(COc2ccc(CCC(=O)O)c(C(F)(F)F)c2)CCC1` [Compound 377, 3-[4-[(2-isopropylcyclopenten-1-yl)methoxy]-2-(trifluoromethyl)phenyl]Propanoic Acid]: the figures for the concentration for a half-maximal effect (EC50) in experiment [1] and in experiment [2] were 493 nM and 42 nM, respectively.

For the compound `CCC(CC)C1=C(COc2ccc(CCC(=O)O)c(C(F)(F)F)c2)CCC1` [Compound 380, 3-[4-[[2-(1-ethylpropyl)cyclopenten-1-yl]methoxy]-2-(trifluoromethyl)phenyl]Propanoic Acid], the concentration giving a half-maximal response (EC50) was greater than 5000 nM in experiment [1] and 84 nM in experiment [2].

For `CC(C)CC1=C(COc2ccc(CCC(=O)O)c(C(F)(F)F)c2)CC(F)(F)C1` [Compound 381, 3-[4-[(4,4-difluoro-2-isobutyl-cyclopenten-1-yl)methoxy]-2-(trifluoromethyl)phenyl]Propanoic Acid], the values for the EC50 in experiment [1] and in experiment [2] were 1650 nM and 150 nM, respectively.

Take `O=C(O)CCc1ccc(OCC2=C(C3CCC3)CC(F)(F)C2)cc1C(F)(F)F` [Compound 382, 3-[4-[(2-cyclobutyl-4,4-difluoro-cyclopenten-1-yl)methoxy]-2-(trifluoromethyl)phenyl]Propanoic Acid]: the concentration giving a half-maximal response (EC50) in experiment [1] stood at 635 nM; in experiment [2], 46 nM.

With `CC(C)CC1=C(COc2ccc(CCC(=O)O)cc2)CCC1` [Compound 384, 3-[4-[(2-isobutylcyclopenten-1-yl)methoxy]phenyl]Propanoic Acid], the EC50 in experiment [1] amounted to 677 nM; in experiment [2] it was 635 nM.

As to `CC(C)CC1=C(COc2ccc(CCC(=O)O)c(C(F)(F)F)c2)CCC1` [Compound 385, 3-(4-((2-isobutylcyclopent-1-en-1-yl)methoxy)-2-(trifluoromethyl)phenyl)Propanoic Acid], the figures for the EC50 in experiment [1] and in experiment [2] were 708 nM and 12 nM, respectively.

For `O=C(O)CCc1ccc(OCC2=C(C3CCCCC3)CCC2)cc1C(F)(F)F` [Compound 386, 3-[4-[(2-cyclohexylcyclopenten-1-yl)methoxy]-2-(trifluoromethyl)phenyl]Propanoic Acid], the EC50 in experiment [1] was 1700 nM; in experiment [2], 92 nM.

For `CC(C)(C)CC1=C(COc2ccc(CCC(=O)O)c(C(F)(F)F)c2)CCC1` [Compound 387, 3-[4-[[2-(2,2-dimethylpropyl)cyclopenten-1-yl]methoxy]-2-(trifluoromethyl)phenyl]Propanoic Acid], the figures for the EC50 in experiment [1] and in experiment [2] were greater than 5000 nM and 71 nM, respectively.

As for `CCC(C)C1=C(COc2ccc(CCC(=O)O)c(C(F)(F)F)c2)CCC1` (centres unmarked) [Compound 388, 3-[4-[(2-sec-butylcyclopenten-1-yl)methoxy]-2-(trifluoromethyl)phenyl]Propanoic Acid], the EC50 in experiment [1] was found to be 1630 nM; in experiment [2] it was 86 nM.

`CCCC1=C(COc2ccc(CCC(=O)O)c(C(F)(F)F)c2)CCC1` [Compound 389, 3-[4-[(2-propylcyclopenten-1-yl)methoxy]-2-(trifluoromethyl)phenyl]Propanoic Acid]: the figures for the EC50 in experiment [1] and in experiment [2] were 750 nM and 51 nM, respectively.

On to `O=C(O)CCc1ccc(OCC2=C(C3CC4CCC3C4)CCC2)cc1C(F)(F)F` (centres unmarked) [Compound 390, 3-[4-[(2-norbornan-2-ylcyclopenten-1-yl)methoxy]-2-(trifluoromethyl)phenyl]Propanoic Acid], for which the EC50 in experiment [1] was 1190 nM; in experiment [2], 23 nM.

As to `Cc1cc(OCC2=C(c3ccc(Br)cc3)CC(F)(F)C2)c(F)cc1CCC(=O)O` [Compound 392, 3-[4-[[2-(4-bromophenyl)-4,4-difluoro-cyclopenten-1-yl]methoxy]-5-fluoro-2-methyl-phenyl]Propanoic Acid], the 50% effective concentration (EC50) in experiment [1] amounted to 223 nM; in experiment [2] it was 1400 nM.

Turning to `O=C(O)CCc1ccc(OCC2=C(c3ccc(Br)cc3)CC(F)(F)C2)cc1Cl` [Compound 393, 3-[4-[[2-(4-bromophenyl)-4,4-difluoro-cyclopenten-1-yl]methoxy]-2-chloro-phenyl]Propanoic Acid], the values for the concentration giving a half-maximal response (EC50) in experiment [1] and in experiment [2] were 291 nM and 420 nM, respectively.

As for `CC(C)CC1=C(COc2ccc(CCC(=O)O)c(Cl)c2)CCC1` [Compound 394, 3-[2-chloro-4-[(2-isobutylcyclopenten-1-yl)methoxy]phenyl]Propanoic Acid], the results for the half-maximal effective concentration (EC50) in experiment [1] and in experiment [2] were 1410 nM and 129 nM, respectively.

As for `O=C(O)CCc1ccc(OCC2=C(C3CCCC3)CCC2)cc1` [Compound 395, 3-[4-[(2-cyclopentylcyclopenten-1-yl)methoxy]phenyl]Propanoic Acid], the EC50 worked out at 255 nM in experiment [1] and 188 nM in experiment [2].

Regarding `O=C(O)CCc1ccc(OCC2=C(C3CCC3)CCC2)cc1` [Compound 397, 3-[4-[(2-cyclobutylcyclopenten-1-yl)methoxy]phenyl]Propanoic Acid], the EC50 in experiment [1] stood at 592 nM; in experiment [2], 418 nM.

With `O=C(O)CCc1ccc(OCC2=C(C3CCCC3)CCC2)cc1C(F)(F)F` [Compound 398, 3-[4-[(2-cyclopentylcyclopenten-1-yl)methoxy]-2-(trifluoromethyl)phenyl]Propanoic Acid], the EC50 in experiment [1] stood at 556 nM; in experiment [2], 8 nM.

Turning to `O=C(O)CCc1ccc(OCC2=C(C3CCC3)CCC2)cc1C(F)(F)F` [Compound 399, 3-[4-[(2-cyclobutylcyclopenten-1-yl)methoxy]-2-(trifluoromethyl)phenyl]Propanoic Acid], the half-maximal effective concentration (EC50) in experiment [1] came to 671 nM; in experiment [2], 15 nM.

Turning to `O=C(O)CCc1ccc(OCC2=C(C3CCC3)CCC2)cc1Cl` [Compound 400, 3-[2-chloro-4-[(2-cyclobutylcyclopenten-1-yl)methoxy]phenyl]Propanoic Acid], the EC50 was determined as 995 nM in experiment [1] and 135 nM in experiment [2].

With `O=C(O)CCc1ccc(OCC2=C(c3ccc(F)cc3)CC(F)(F)C2)cc1Cl` [Compound 401, 3-[2-chloro-4-[[4,4-difluoro-2-(4-fluorophenyl)cyclopenten-1-yl]methoxy]phenyl]Propanoic Acid], the EC50 in experiment [1] turned out to be 304 nM; in experiment [2], 311 nM.

For the compound `Cc1cc(OCC2=C(c3ccc(F)cc3)CC(F)(F)C2)c(F)cc1CCC(=O)O` [Compound 402, 3-[4-[[4,4-difluoro-2-(4-fluorophenyl)cyclopenten-1-yl]methoxy]-5-fluoro-2-methyl-phenyl]Propanoic Acid], the values for the EC50 in experiment [1] and in experiment [2] were 278 nM and 1090 nM, respectively.

In the case of `O=C(O)CCc1ccc(OCC2=C(C(=O)c3ccccc3)CCC2)cc1C(F)(F)F` [Compound 403, 3-[4-[(2-benzoylcyclopenten-1-yl)methoxy]-2-(trifluoromethyl)phenyl]Propanoic Acid], the EC50 in experiment [1] amounted to 1490 nM; in experiment [2] it was 1140 nM.

Regarding `O=C(O)CCc1ccc(OCC2=C(Cc3ccccc3F)CCC2)cc1C(F)(F)F` [Compound 404, 3-[4-[[2-[(2-fluorophenyl)methyl]cyclopenten-1-yl]methoxy]-2-(trifluoromethyl)phenyl]Propanoic Acid], the 50% effective concentration (EC50) in experiment [1] is 1910 nM; in experiment [2], 105 nM.

With `Cc1cccc(CC2=C(COc3ccc(CCC(=O)O)c(C(F)(F)F)c3)CCC2)c1` [Compound 405, 3-[4-[[2-(m-tolylmethyl)cyclopenten-1-yl]methoxy]-2-(trifluoromethyl)phenyl]Propanoic Acid], the EC50 in experiment [1] is 1820 nM; in experiment [2], 205 nM.

Turning to `Cc1cccc(CC2=C(COc3ccc(CCC(=O)O)c(Cl)c3)CCC2)c1` [Compound 406, 3-[2-chloro-4-[[2-(m-tolylmethyl)cyclopenten-1-yl]methoxy]phenyl]Propanoic Acid], the EC50 in experiment [1] is greater than 5000 nM; in experiment [2] it was 152 nM.

Take `O=C(O)CCc1ccc(OCC2=C(C3CCCC3)CC(F)(F)C2)cc1C(F)(F)F` [Compound 407, 3-[4-[(2-cyclopentyl-4,4-difluoro-cyclopenten-1-yl)methoxy]-2-(trifluoromethyl)phenyl]Propanoic Acid]: the EC50 in experiment [1] worked out at 150 nM; in experiment [2], 30 nM.

Regarding `O=C(O)CCc1ccc(OCC2=C(C3CCCC3)CC(F)(F)C2)cc1Cl` [Compound 409, 3-[2-chloro-4-[(2-cyclopentyl-4,4-difluoro-cyclopenten-1-yl)methoxy]phenyl]Propanoic Acid], the results for the EC50 in experiment [1] and in experiment [2] were 86 nM and 25 nM, respectively.

As to `CC(C)c1cc(OCC2=C(C3CCCC3)CCC2)ccc1CCC(=O)O` [Compound 410, 3-[4-[(2-cyclopentylcyclopenten-1-yl)methoxy]-2-isopropyl-phenyl]Propanoic Acid], the values for the EC50 in experiment [1] and in experiment [2] were 996 nM and 128 nM, respectively.

Turning to `O=C(O)CCc1ccc(OCC2=C(C3CCC(F)(F)CC3)CCC2)cc1Cl` [Compound 411, 3-[2-chloro-4-[[2-(4,4-difluorocyclohexyl)cyclopenten-1-yl]methoxy]phenyl]Propanoic Acid], the EC50 in experiment [1] was greater than 5000 nM; in experiment [2], 133 nM.
